In data set [1] the test system is TCRV. The data set can be described thus: microbe, parasite or virus in culture. It is filed as cell-based, Tacaribe virus (11573 strain). The conditions noted are these: Mammarenavirus tacaribeense, Huh7.5, 48 h; for EC50: read-out: TARV EC50; for EC90: read-out: TARV EC90.
Data set [2] relates to DENV. The experiment in a line: microbe, parasite or virus in culture. It is filed as cell-based, DENV (serotype 2, New Guinea C). The conditions noted are these: Dengue virus, BHK, 48 h; for EC50: read-out: DENV EC50; for EC90: read-out: DENV EC90.
The conditions of data set [3]: male, Sprague-Dawley, rat, in vivo.
The nature of data set [4]: in vivo. The conditions noted are these: male, Sprague-Dawley, rat; for C0 / Vd / clearance / half-life: iv.
A short description of data set [5]: in vitro. Particulars: bovine.
Data set [6] can be described thus: in vitro. Particulars: human.
A short description of data set [7]: in vitro. The conditions noted are these: hamster.
A short description of data set [8]: physchem.
Data set [9] concerns CYP1A2, CYP2C9, CYP2C19, CYP2D6 and CYP3A4. The experiment in a line: in vitro. Particulars: human.
A short description of data set [10]: in vitro. Particulars: human, Caco-2.
For data set [11] the following is noted: rat, in vivo; for rats with diarrhea: Sprague-Dawley, po, 200 mg/kg.

≈ marks a conversion by molar mass, not a printed value. Read-outs that look alike come from different tables or passages of the source. Bounds are passed on as bounds.

What is called EC50 is the concentration at which the effect is half-maximal. One may read the EC90 as the concentration at which the effect reaches the 90% level. The term Tmax denotes the time from dosing to the highest level. As a reminder, the Cmax is the highest concentration seen after dosing. The Vd is the apparent volume that relates the amount in the body to the concentration in plasma or blood. Read a low Vd as little distribution into tissue. As usually defined, the clearance is the rate of elimination divided by the concentration. By half-life is commonly meant the time in which the quantity being followed falls by half. Read a low half-life as rapid decline. The solubility is the dissolved amount per volume that the medium holds. Read a high solubility as a readily soluble substance. A word on the IC50: it is the point on the concentration scale where inhibition reaches its midpoint. Read a high IC50 as weaker potency in that assay. Usually efflux ratio stands for the permeability from basolateral to apical divided by that in the opposite direction, in the common usage. As for `CC(C)(C)NC(=O)N(CCCCCCN1C[C@H](O)[C@@H](O)[C@H](O)[C@H]1CO)C1CCCCC1` [IHVR19029, 3-(tert-butyl)-1-cyclohexyl-1-(6-((2R,3R,4R,5S)-3,4,5-trihydroxy-2-(hydroxymethyl)piperidin-1-yl)hexyl)urea], the EC50 is 0.74 ± 0.3 µM in data set [1] and 1.25 ± 1.1 µM in data set [2]. The EC90 in data set [1] is 52.5 ± 38.9 µM; in data set [2] it was 22.5 ± 10.6 µM. Also, the “AUC IM” value in data set [3] was 1383/945/1839/983 μg*h/mL. For the same compound, the “F PO” value in data set [3] is 4.6/71/133%. Besides, the “AUC IP” value in data set [3] (ip, 5 mg/kg) is 1383/945/1839/983 μg*h/mL. The “AUC IV” value in data set [3] (5 mg/kg) was 1383/945/1839/983 μg*h/mL. Moreover, the “AUC PO” value in data set [3] (75 mg/kg) is on record as 1383/945/1839/983 μg*h/mL. For the same compound, the “mortality or clinical signs” value (Balb/c mice, single dose IP or IM up to 200mg/kg, 9-day observation) is reported as “No mortality or clinical signs were observed”. Further, the “weight loss and GI alterations” value (mouse, in vivo) was “No significant weight loss and GI alterations”. The Tmax is 0.167 h in data set [4]; 0.1 h in [4] (im, 5 mg/kg); 0.17 h in data set [4] (ip, 5 mg/kg); 2.1 h in data set [4] (po, 75 mg/kg). The Cmax in data set [4] (im, 5 mg/kg) was 1230 ng/mL; in data set [4] (ip, 5 mg/kg), 1330 ng/mL; in [4] (po, 75 mg/kg), 260 ng/mL. In data set [4] (5 mg/kg), this compound registered a C0 of 1790 ng/mL. The Vd in [4] (5 mg/kg) came out at 3 L/kg. Moreover, the clearance in [4] (5 mg/kg) is 58.2 mL/min/kg. In data set [4] (5 mg/kg), this compound gave a half-life of 1.2 h. Further, the CC50 in data set [5], in data set [6] and in data set [7] was over 500 µM each time. Further, the solubility in data set [8] (pH 4, aqueous buffer) stood at 309 µM (≈ 137 µg/mL); in data set [8] (pH 7.4, aqueous buffer) it was 303 µM (≈ 134 µg/mL). Moreover, the IC50 in data set [9] was over 10 µM. Besides, the efflux ratio in [10] is 34.2.

With `OC[C@@H]1[C@@H](O)[C@H](O)[C@@H](O)CN1CCCCCCOc1cc(F)ccc1F` [IHVR11029, (2R,3R,4R,5S)-1-(6-(2,5-difluorophenoxy)hexyl)-2-(hydroxymethyl)piperidine-3,4,5-triol], in data set [1], the EC50 came to 3.3 ± 2.7 µM and the EC90 came out at 69 ± 37.7 µM. Besides, in data set [2], the EC50 worked out at 0.75 ± 0.06 µM and the EC90 was determined as 6.3 ± 3.5 µM. Moreover, the “F PO” value in data set [3] was 92/ND/ND %. Besides, in [3] (5 mg/kg), the “AUC IV” value is given as 1990/9180/ND/ND μg*h/mL. In addition, the “AUC PO” value in data set [3] (25 mg/kg) is on record as 1990/9180/ND/ND μg*h/mL. Also, in data set [11], the rats with diarrhea came to 50% and the “adverse event at lower doses” value is recorded as “sign of GI stress, such as anogenital staining or soft stool”. In data set [4] (5 mg/kg), the C0 was 1620 ng/mL and the clearance was 42.3 mL/min/kg. The Tmax in data set [4] (po, 25 mg/kg) is 4.17 h. The same compound had a CC50 in [5] of over 500 µM. The CC50 in data set [6] was over 500 µM. For the same compound, the CC50 in data set [7] was over 500 µM. In data set [9], this compound came in with an IC50 of over 10 µM.

For the compound `CC(C)(C)C(=O)N(CCCCCCN1C[C@H](O)[C@@H](O)[C@H](O)[C@H]1CO)C1CCCCC1` [IHVR17028, N-cyclohexyl-N-(6-((2R,3R,4R,5S)-3,4,5-trihydroxy-2-(hydroxymethyl)piperidin-1-yl)hexyl)pivalamide], in data set [1], the EC50 amounted to 0.26 ± 0.08 µM and the EC90 amounted to 26.7 ± 20.9 µM. In data set [2], the EC50 amounted to 0.3 ± 0.03 µM and the EC90 stood at 1.7 ± 0.8 µM. Further, in data set [3] (5 mg/kg), the “AUC IV” value was 1540/903/ND/ND μg*h/mL. Besides, the “AUC PO” value in data set [3] (25 mg/kg) is reported as 1540/903/ND/ND μg*h/mL. In addition, in data set [11], the rats with diarrhea is 100% and the “adverse event at lower doses” value is “sign of GI stress, such as anogenital staining or soft stool”. In data set [4] (5 mg/kg), this compound had a C0 of 1660 ng/mL, a Vd of 3 L/kg, a clearance of 55.7 mL/min/kg and a half-life of 0.88 h. For the same compound, in [4] (po, 25 mg/kg), the peak level (Cmax) was 180 ng/mL and the Tmax is 1.56 h. Further, the CC50 in [5] was over 500 µM. In addition, the CC50 in data set [6] was over 500 µM. The same compound gave a CC50 in data set [7] of over 500 µM. This compound also displayed a solubility in data set [8] (pH 4, aqueous buffer) of 299 µM (≈ 128 µg/mL). The compound further showed a solubility in data set [8] (pH 7.4, aqueous buffer) of 311 µM (≈ 133 µg/mL). The IC50 in data set [9] was over 10 µM. The efflux ratio in data set [10] came out at 31.7.

The values are drawn from publication PMC3663898 (Antiviral research, 2013).
